Results from PubChem BioAssay AID504313 (Emory University Molecular Libraries Screening Center, 2011).
Activity calls are given as the source filed them. How the calls were made is not given here.

The compounds below were run against X-box-binding protein 1 (Homo sapiens) (UniProt P17861) (assay: inhibitors of XBP1 reporter signal, dose response, counter-screen, cell-based (AID 504313;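 further: CHO cells carrying an XBP1 reporter stimulated with tunicamycin; potency is for inhibition of the tunicamycin-induced reporter signal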)). Conditions: XBP1 reporter cell assay, percent of control.

SMILES | IC50
COC(=O)c1c(NC(=O)Nc2ccc(Cl)cc2)sc(C)c1C | > 10 µM (inactive)
Nc1cccc(Nc2nc(OC(C(F)(F)F)C(F)(F)F)nc(OC(C(F)(F)F)C(F)(F)F)n2)c1 | 2.09 µM
Cc1ccc(NC(=O)O/N=C/c2c(C)nn(C(C)(C)C)c2C)cc1Cl | < 0.16 µM
Cc1ccc(NC(=O)c2ccc(Nc3c([N+](=O)[O-])cc([N+](=O)[O-])cc3[N+](=O)[O-])cc2)cc1 | inactive
CCCCc1nc2ccccc2c(=O)n1NC(=O)c1c(O)c2ccccc2n(C)c1=O | > 10 µM (inactive)
CC1CCc2cc(F)ccc2N1C(=O)CSc1nnc2c(n1)[nH]c1ccc(F)cc12 (stereo unspecified) | > 10 µM (inactive)
O=C(CN1c2ccccc2Sc2ccccc21)NNC(=O)Nc1cccc(Cl)c1 | > 10 µM (inactive)
CC(C)Oc1ccc(CNC(=S)N/N=C/c2ccc([N+](=O)[O-])cc2)cc1 | > 10 µM (inactive)
CCCCc1c(C)nn(-c2nnc3c4ccccc4n(CC)c3n2)c1C | > 10 µM (inactive)
Cc1cc(C)cc(OC2CCCCC2NS(=O)(=O)c2ccccc2)c1 (stereo unspecified) | > 10 µM (inactive)
O=C(N/N=C/c1cccs1)c1cccc(NC(=O)c2ccc(Cl)cc2)c1 | inactive
Cn1c(=O)[nH]c(=O)c2c1nc([N+](=O)[O-])n2Cc1ccccc1 | inactive
Cc1ccc2[nH]c3c(c2c1)CN(C(=O)CN1CCN(c2cccc(C)c2C)CC1)CC3 | > 10 µM (inactive)
S=C(Nc1ccccc1)Nc1ccc(OCc2ccc(Cl)cc2Cl)cc1 | 0.19 µM
Nc1ccc2c(c1)C(=O)C(=O)c1ccccc1-2 | inactive
O=c1c(Cl)nc2cc(Cl)ccc2n1CCNc1ncc(C(F)(F)F)cc1Cl | 4.7 µM
NC(=O)c1ccc(C(F)(F)F)n(Cc2c(Cl)cccc2Cl)c1=O | inactive
CCOC(=O)c1cc(-c2cccs2)nc2c1c(C)nn2-c1ccccn1 | > 10 µM (inactive)
CCCCC(CC)Cn1c2nc3ccccc3nc2c2c(=N)oc(C)nc21 (stereo unspecified) | > 10 µM (inactive)
CC1CCC(C(C)C)C(OCC(O)CN2CCN(Cc3ccccc3)CC2)C1 (stereo unspecified) | > 10 µM (inactive)
CCCCCCCCCS(=O)(=O)N/N=C/c1cccc([N+](=O)[O-])c1 | inactive
O=C(CNC1CCCCCC1)Nc1ccccc1N1CCCCC1 | inactive
CCOc1cc(/C=N/NC(=O)COc2cccc(C)c2)ccc1OC(=O)c1cccs1 | > 10 µM (inactive)
C/C(=N\NC(=O)COc1ccc(C(C)(C)C)cc1)c1ccc(N2CCOCC2)cc1 | inactive

SMILES | IC50
CCOC(=O)c1cc(-c2ccccc2)nc2c1c(C)nn2-c1ccccn1 | > 10 µM (inactive)
CCC(C)NC(=O)c1c(N)n(CC2CCCO2)c2nc3ccccc3nc12 (stereo unspecified) | > 10 µM (inactive)
Nc1nc(-c2ccccc2)c(N=Nc2ccccc2Cl)s1 | inactive
Cc1cc(/C=c2/sc3nc4ccccc4n3c2=O)c(C)n1-c1ccccn1 | < 0.16 µM
COc1cc(NC(=O)COc2ccccc2[N+](=O)[O-])ccc1NC(=O)c1cccs1 | > 10 µM (inactive)
COC(=O)C(O)(c1ccc(NC(=S)NC(=O)c2ccc(Cl)cc2Cl)c(C)c1)C(F)(F)F (stereo unspecified) | > 10 µM (inactive)
COC(=O)[C@]12OC[C@]34C([C@@H](O)[C@@H]1O)[C@]1(C)CC(=O)C(O)=C(C)[C@@H]1C[C@H]3OC(=O)[C@H](O)[C@@H]24 (stereo partly specified) | inactive
O=S(=O)(Nc1cc(Sc2cccc3cccnc23)c(O)c2ccccc12)c1ccc(F)cc1 | 4.63 µM
NC(=O)CC(NC(=O)Cc1cccc2ccccc12)c1ccc(NCc2ccc(F)cc2)c([N+](=O)[O-])c1 (stereo unspecified) | > 10 µM (inactive)
CCCCC(CC)Cn1c(N)c(C#N)c2nc3ccccc3nc21 (stereo unspecified) | inactive
CC1=CCC[C@@H]2[C@@](C)(CC/C(C)=C/C(=O)O)[C@H](C)CC[C@@]12C | > 10 µM (inactive)
COc1ccccc1-c1cc(C(F)(F)F)nc(S(=O)(=O)CCCC(=O)Nc2cc(C)on2)n1 | inactive
Cc1nc(COC(=O)c2cc(O)c3ccccc3c2O)cs1 | > 10 µM (inactive)
Nc1c(S(=O)(=O)c2cccc(Cl)c2)c2nc3ccccc3nc2n1/N=C/c1ccc(O)c(O)c1 | > 10 µM (inactive)
CC(C)Oc1ccc(CNC(=O)CC(c2ccccc2)c2cc(Cl)ccc2O)cc1 (stereo unspecified) | > 10 µM (inactive)
CC1=C/C(=N\OS(=O)(=O)c2ccccc2)C=CC1=O | 2.9 µM
Cc1ccc(N2C(=O)NC(=O)/C(=C\C=C\c3ccco3)C2=O)cc1 | inactive
C=C1C(=O)O[C@@H]2C[C@@H](C)[C@@H]3C4OC4C(=O)[C@@]3(C)[C@@H](O)[C@H]12 (stereo partly specified) | 4.96 µM
CC[n+]1c(/C=C2\Sc3ccccc3N2C)ccc2cccc(C)c21 | 0.24 µM
Fc1cc(F)c2nc(Nc3nc4cc5c(cc4s3)OCO5)sc2c1 | > 10 µM (inactive)
O=C(CSc1ncnc2[nH]ncc12)Nc1nc(-c2ccc(F)c(F)c2)cs1 | > 10 µM (inactive)
C=C(C)COc1ccc(-c2n[nH]c(C)c2Oc2ccccc2OC)c(O)c1 | inactive
CCN1C=CC(=C2C(=O)c3ccccc3C2=O)C=C1 | inactive
COc1ccc(-c2nc(NC(=O)Cn3ccc(C(F)(F)F)n3)sc2C)cc1 | > 10 µM (inactive)

SMILES | IC50
CC(C)(C)c1ccc(S(=O)(=O)NCC(=O)Nc2sc3c(c2C(N)=O)CCCC3)cc1 | > 10 µM (inactive)
Cc1ccc(S(=O)(=O)/N=C2/C=C(Sc3ncn[nH]3)C(=O)c3ccccc32)cc1 | inactive
Cc1ccc(-c2nn(-c3ccccc3)cc2/C=N/NC(=O)c2ccc(Br)o2)cc1 | inactive
CC(C)(C)C(=O)NC(NC(=S)Nc1sc2c(c1C#N)CCCC2)C(Cl)(Cl)Cl (stereo unspecified) | > 10 µM (inactive)
CCCCCCOC(=O)c1ccccc1N | > 10 µM (inactive)
O=C(Nc1ccc(F)cc1)Nc1ccc(N2CCCC2)c(S(=O)(=O)Nc2ccccc2Cl)c1 | inactive
Cc1ccccc1CS(=O)(=O)c1nnc([C@H](CC(C)C)NC(=O)OC(C)(C)C)o1 | inactive
O=C(NC(Nc1nc2ccc([N+](=O)[O-])cc2s1)(C(F)(F)F)C(F)(F)F)c1ccccc1Cl | 0.34 µM
COc1ccc(/C=C/C(=O)NC(=S)NNC(=O)c2cccnc2)cc1 | > 10 µM (inactive)
CCCCc1ccc(NC(=S)Nc2ccc(Cl)c(S(=O)(=O)N(C)C)c2)cc1 | > 10 µM (inactive)
CC(C)(C)C1CCC(C(=O)OCC(=O)c2ccc[nH]2)CC1 (stereo unspecified) | inactive
C=C(C(=O)c1ccccc1)C(C)C(=C)C(=O)c1ccccc1 | inactive
CCc1ccc(OCC(=O)NC(NC(=S)Nc2ccc(Cl)cc2)C(Cl)(Cl)Cl)cc1 (stereo unspecified) | inactive
CCOc1cc(/C=C\[N+](=O)[O-])ccc1OCC(=O)Nc1ccccc1C | 4.59 µM
O=C(Nc1ccc([N+](=O)[O-])cc1)Nc1nc(-c2ccc(Cl)s2)cs1 | 2.53 µM
COc1cc(N(C(=O)Cc2cccs2)C(C(=O)NC2CCCCC2)c2ccc(C)cc2)ccc1-n1cnnn1 (stereo unspecified) | > 10 µM (inactive)
CC(C)=CCc1c(O)cc2oc3c(CC=C(C)C)c(O)c(O)c(CC=C(C)C)c3c(=O)c2c1O | 5.24 µM
CCCCCCn1c(=O)c(C(=O)N/N=C/c2cccc(F)c2)c(O)c2ccccc21 | inactive
CCCCCCOC(=O)Nc1ccc(S(=O)(=O)Nc2cccc([N+](=O)[O-])c2)cc1 | > 10 µM (inactive)
COc1cc(CNCc2ccccn2)ccc1OCc1ccc(Cl)cc1Cl | > 10 µM (inactive)
CCOC(=O)c1cc([N+](=O)[O-])c([N+](=O)[O-])cc1NC(C)=O | inactive
CC(=O)Nc1ccc(NC2=Nc3ccccc3N3C2=Nc2c(c(C)nn2-c2ccccc2)C3c2ccccc2)cc1 (stereo unspecified) | inactive
Cc1nn(Cc2c(Cl)cccc2Cl)c(C)c1NC(=O)c1cc(C(C)C)on1 | > 10 µM (inactive)
CCCCCCCCCCCCCCCC[n+]1ccc(/C=N/O)cc1 | inactive

SMILES | IC50
O=C(COCC(=O)Nc1cccc(C(F)(F)F)c1)Nc1cccc(C(F)(F)F)c1 | inactive
COc1ccc(NC(=O)/C(Cl)=C(/Cl)S(=O)Cc2ccc(Cl)cc2)cn1 (stereo unspecified) | 3.27 µM
COc1cc(/C=C2\COC/C(=C\c3cc(OC)c(OC)c(OC)c3)C2=O)cc(OC)c1OC | 1.39 µM
Cc1cccc(/C=C2/S/C(=N/N=C3\CC4CCC3(C)C4(C)C)NC2=O)c1 (stereo unspecified) | inactive
FC(F)(F)c1cccc(NC(=S)Nc2ccc(Cl)cc2Cl)c1 | > 10 µM (inactive)
COc1ccc(OCc2cccc(C(=O)Nn3cc([N+](=O)[O-])cn3)c2)cc1 | 0.33 µM
Cc1cccnc1NC(=O)c1c(O)c2ccccc2n(C)c1=O | inactive
Cc1cc(Br)c2c(c1)/C(=C/C(=O)c1cccs1)C(=O)N2 | > 10 µM (inactive)
CCCCc1ccc(Nc2nc(CCC)cc(=O)[nH]2)cc1 | 2.24 µM
Oc1ccc(/C=N/Nc2nc(-c3ccc(Cl)cc3)cc(C(F)(F)F)n2)cc1 | > 10 µM (inactive)
O=C1c2ccccc2C(=O)c2c1oc(C(F)(F)F)c2C(=O)c1ccccc1 | inactive
NC(=O)CC(NC(=O)Cc1cccc2ccccc12)c1ccc(NCc2cc(F)ccc2F)c([N+](=O)[O-])c1 (stereo unspecified) | > 10 µM (inactive)
O=C(NC(c1ccccc1)c1c(O)ccc2ccccc12)c1ccccc1Cl (stereo unspecified) | inactive
CCOc1ccc2nc(NC(=O)CSc3nnnn3C3CCCCC3)sc2c1 | > 10 µM (inactive)
O=C(Nc1ccccc1Cl)/C(Cl)=C(\Cl)S(=O)c1ccccc1 (stereo unspecified) | 2.4 µM
NC(N)=N/N=C/c1cn(-c2ccccc2)nc1-c1cccs1 | > 10 µM (inactive)
CN(C)c1ccc(-c2nc3ccccn3c2/N=C/c2ccc(Br)cc2)cc1 | > 10 µM (inactive)
O=C(Nc1ccc(-c2nc3ccccc3s2)cc1)C1=COCCO1 | inactive
CCCOC(=O)c1ccc(Oc2c(-c3ccc(OCC)cc3O)n[nH]c2C)cc1 | inactive
C/C=C(\C)C(=O)OC1C(C)=C2C(C1OC(=O)CCCCC)C(C)(OC(C)=O)CC(OC(=O)CCC)C1(O)C2OC(=O)C1(C)O (stereo unspecified) | 5.03 µM
COC(=O)CS(=O)(=O)c1nnc([C@H](Cc2ccccc2)NC(=O)OC(C)(C)C)o1 | inactive
O=C1C=CC(O)(c2cc(=O)c3c(O)cc(O)cc3o2)C=C1 | 3.84 µM
CCOc1cccc(C(=O)Nc2cccc(-c3nnc(-c4ccc(C)cc4)o3)c2)c1 | > 10 µM (inactive)
OC(c1cccc(OCc2ccccc2)c1)c1nnc(-c2ccccc2)o1 (stereo unspecified) | > 10 µM (inactive)
